Where no end group is shown, it is not given here.
Tests used:
DU145 cells [1] = experiment: Cell growth of DU145 cells, trypan blue exclusion count; assay type: cell-based, human; conditions: for reduction in the cell numbers: 1 μM, 4 days, vs vehicle (absolute ethanol) control; for effect on cell growth: 4-day exposure, vs vehicle control
Procedure: FIGS. 2A-2D are graphs summarizing data on effects of antiestrogens and estrogens on cell growth of DU145 cells. Cells (5×10^3 cells per well) were plated in triplicate wells onto a 24-well plate. After 24 hours for cell attachment, cells were treated for 4 days with antiestrogens [(A) ICI and (B) 4OH-TAM] or estrogens [(C) 17β-estradiol and (D) DES] at various concentrations as indicated. Cells treated with vehicle (absolute ethanol) were used as control. The number of viable cells at the end of 4 days of treatment was determined by the trypan blue exclusion method. Three individual experiments were performed. (Columns, means; bars, S.D.; n=9; *, p<0.001 compared to control (shaded column).
(§1) Cells were seeded at a density of 5×10^3 per ml into 24-well plates (Falcon, Becton Dickinson Labware, Lincoln Park, N.J.) in a final volume of 1 ml culture medium with 5% charcoal-stripped FBS. Twenty-four hours following seeding, triplicate wells of cells were treated in with 1 μM, 10 μM and 100 μM of estradiol-17β (E2), diethylstilbestrol (DES), 4′-hydroxytamoxifen (4OH-TAM) or ICI 182,780 (ICI). E2, DES, and 4OH-TAM were purchased from Sigma Co. (St. Louis, Mo.) and ICI was a gift from Zeneca Pharmaceuticals (Macclesfield, United Kingdom). Estrogens and antiestrogens were dissolved in absolute ethanol (Sigma Co., St. Louis, Mo.) and added to the media daily. Cell cultures not treated with estrogenic compounds received absolute ethanol as a vehicle control. Total additive ethanol concentrations never exceeded 0.2% throughout the culture period. The cells were re-fed with freshly prepared medium every other day. At the end of a 4-day treatment period, cells in each well were trypsinized and cell count determined by direct counting using the Trypan blue exclusion method. All treatment experiments were repeated at least three times to generate statistically relevant data.

PC-3 cells = experiment: Cell growth of PC-3 cells, trypan blue exclusion count; assay type: cell-based, human
Procedure: FIGS. 3A-3D are graphs summarizing data on effects of antiestrogens and estrogens on cell growth of PC-3 cells. Cell growth assay was described in […]. (A) ICI. (B) 4OH-TAM. (C) 17β-estradiol. (D) DES. Columns, means; bars, S.D.; n=9; * ,p<0.001; #, p<0.01; +, p<0.05; compared to control (shaded column).
as §1

DU145 cells [2] = experiment: ICI-induced DU145 cell growth inhibition with ERβ antisense, sense or mismatch ODN; assay type: cell-based, human; conditions: ICI 1 μM, 4 days, no ODN
Procedure: FIG. 4 is a graph summarizing data on reduction of ICI-induced inhibition of DU145 cell growth by ERβ antisense oligonucleotide (ODN). Cells were treated with ICI at 10^−6 M for 4 days in the presence of 2.5 μM antisense, sense or mismatch ODNs. Columns, means; bars, S.D.; n=16; *,p<0.001 compared to control without ODN treatment.
DU145 cells (5×10^3 cells per well) were plated in 24 well-plates (Falcon, Becton Dickinson Labware, Lincoln Park, N.J.). After allowing 24 hours for cell attachment, cell cultures were treated in triplicate with 1 μM ICI in the presence of 2.5 μM ERβ antisense, sense or mismatch ODNs for 4 days. The ERβ antisense ODN, an 18-mer, was designed to recognize the first translation start site on the ERβ mRNA and its immediate 5′flanking region (Table 2, below). The nucleotide sequence of sense ODN is complementary to those of ERβ antisense ODN (Table 2). Based on the sequence of ERβ antisense ODN, 5 nucleotides were scrambled to generate a mismatch ODN that retains the same GC ratio of the ERβ antisense ODN (Table 2). Both the sense and the mismatch ODNs served as controls for the antisense ODN. In all three ODNs, the first and the last 3 nucleotides were phosphorothioate-modified to increase their stability in cellulo. Number of viable cells in each well was determined by direct counting using the Trypan blue exclusion method after a 4-day treatment period. […]

DU145 cells [3] = experiment: cDNA expression array of DU145 cells treated with ICI 182,780; assay type: cell-based, human; conditions: DU145, 12 hours
Procedure: cDNA array technology was used to identify genes whose expression is modulated by ICI 182,780 in DU145 cells. The DU-145 cells were treated for 12 hours with ICI 182,780, and total RNA was then isolated from treated cells and untreated controls. Following poly-(A)-RNA selection of these two population of total RNA, and DNase I digestion to remove contaminating DNA, the poly (A)-RNA pools were reversed-transcribed in the presence of P32 to produce radiolabeled cDNA probes. These radiolabeled cDNA probes were applied to an Atlas™ cDNA Expression Array (600 gene array, Clontech Laboratories, Inc, Palo Alto, Calif.) using the vendor's recommended protocol.

DU145 = experiment: Cell growth inhibition by Raloxifene and Resveratrol, DU145; assay type: cell-based, human
Excerpt: (§2) Raloxifene® and Resveratrol® may also be active tumor suppressing agents utilizing the ERβ pathways. […] Treatment protocols and dosages used were similar to those described above.

PC-3 M cells = experiment: Cell growth inhibition by Raloxifene and Resveratrol, PC-3 M; assay type: cell-based, human
Excerpt: as §2

recombinant ERβ protein = experiment: Competitive inhibition ELISA of GC-17 antibody; assay type: binding, human; conditions: peptide pre-incubated with GC-17 (1:6000); ERβC 4 mg-4 μg/ml, ERβN 4 mg/ml
Procedure: FIG. 5 is a graphic representation of the results of a competitive ELISA assay and illustrates the concentration-dependent competition of the immunizing peptide (ERβC) with a GC-17 antibody. […] The GC-17 antibodies, bound to recombinant ER-β protein on ELISA plates, were recognized by alkaline phosphatase conjugated anti-rabbit IgG antibodies. The whole complexes were visualized by incubation with p-nitrophenyl phosphate. The optical density at 405 nm was measured. The entire assay was done 4 times. The columns represent the standard deviation. w/o=GC-17 preincubated without peptide antigen.
The wells of an ELISA plate, PRO-BIND™ (Becton-Dickenson Labware, Franklin, N.J.) were coated with a recombinant protein composed of the entire ERβ sequence (PanVera, Madison, Wis.) at a concentration of 5 μg/ml. The GC17 antibody (1:6000) was then pre-incubated with the immunizing peptide at concentrations ranging from 4 mg-4 μg/ml at room temperature for 30 minutes. In addition, 4 mg of a control peptide encompassing sequences in the N-terminal region of ER-β (Research Genetics) was preincubated with the GC 17 antibody (1:6000) at room temperature for 1 hour. […] Results were quantified by optical density using the Microplate reader 550 (Bio-Rad, Richmond, Calif.). […]

ERβ = experiment: Competitive immunohistochemistry with GC-17 antibody; assay type: cell-based, human; conditions: sections of DU145 and LNCaP cells, 400 μg/ml or 40 μg/ml peptide
Excerpt: These cells were used to compliment and confirm that the GC-17 antibody reagent specifically detected ERβ but not ERα by immunohistochemical staining. Using the GC-17 antibody and the anti-ERα antibody (NCL-ER-6F11, Novacastra, Newcastle, UK) at the same dilutions as for tissue sections (see below), we carried out immunohistochemical studies on 10% formalin-fixed cytospins of DU145 and LNCaP cells that had been routinely processed, embedded in paraffin, sectioned at 5 μm and mounted on SuperFrost Plus™ slides (VWF Scientific, West Chester, Pa.).
Peptide competition studies were performed at the immunohistochemical level that approximated the conditions used in the ELISA assays described above. GC-17 antibody, at a dilution of 1:6000, was incubated with the immunizing ERβ peptide at concentrations of 400 μg and 40 μg at room temperature for 1 hour. In addition, competitive studies were conducted using ERα recombinant peptide (400 and 40 μg, Affinity Bioreagents Inc., Golden, Colo.) on DU145 cells. Incubation conditions and time were identical to those used for the ERβ peptide competition studies. Deparaffinized sections of DU145 and LNCaP cells and human prostate tissue were then incubated with these mixtures at room temperature for 1 hour. […]

Molecule: CC/C(=C(\c1ccccc1)c1ccc(OCCN(C)C)cc1)c1ccc(O)cc1 [4OH-TAM, 4′-hydroxytamoxifen]
- reduction in the cell numbers (DU145 cells [1]): around 25%

Molecule: CC/C(=C(/CC)c1ccc(O)cc1)c1ccc(O)cc1 [DES, diethylstilbestrol]
- effect on cell growth (DU145 cells [1]): did not affect cell growth
- effect on cell growth (PC-3 cells; various concentrations): did not elicit statistically significant cell growth inhibition

Molecule: C[C@]12CC[C@@H]3c4ccc(O)cc4CC[C@H]3[C@@H]1CC[C@@H]2O [E2, estradiol-17β]
- effect on cell growth (DU145 cells [1]): did not affect cell growth
- effect on cell growth (PC-3 cells; 1 μM, p<0.05): induced inhibition of cell growth
- effect on cell growth (PC-3 cells; 10 μM, p<0.01): induced inhibition of cell growth

Molecule: C[C@]12CC[C@@H]3c4ccc(O)cc4C[C@@H](CCCCCCCCC[S+]([O-])CCCC(F)(F)C(F)(F)F)[C@H]3[C@@H]1CC[C@@H]2O (stereo partly drawn) [ICI 182,780]
- reduction in the cell numbers (DU145 cells [1]): 40%
- effect on cell growth (DU145 cells [1]): dose-dependent inhibition of cell numbers
- reduction in cell number (DU145 cells [2]): 40%
- Fold difference relative to control (DU145 cells [3]; gene: 5-hydroxytryptamine A1 receptor (E4h)): +6.6
- Fold difference relative to control (DU145 cells [3]; gene: BCL-2 related A1 protein (BFL-1)(C4H)): +9.6
- Fold difference relative to control (DU145 cells [3]; gene: Embryonic growth/differentiation factor (GDF-1)): +4.5
- Fold difference relative to control (DU145 cells [3]; gene: IFN-α/β receptor): +2.7
- Fold difference relative to control (DU145 cells [3]; gene: Interleukin-12 alpha chain (IL-12)(F6K)): +10.6
- Fold difference relative to control (DU145 cells [3]; gene: RYK receptor-like tyrosine kinase (E2c)): +3.6
- Fold difference relative to control (DU145 cells [3]; gene: TL1309): +2.7

Molecule: O=C(c1ccc(OCCN2CCCCC2)cc1)c1c(-c2ccc(O)cc2)sc2cc(O)ccc12 [Raloxifene]
- efficacy compared (DU145): markedly better than that of Resveratrol and ICI
- inhibition of cell growth (DU145): marked inhibition of cell growth
- efficacy compared (PC-3 M cells): markedly better than that of Resveratrol and ICI
- inhibition of cell growth (PC-3 M cells): marked inhibition of cell growth

Molecule: Oc1ccc(C=Cc2cc(O)cc(O)c2)cc1 [Resveratrol]
- inhibition of cell growth (DU145): marked inhibition of cell growth
- inhibition of cell growth (PC-3 M cells): marked inhibition of cell growth

Molecule: ERβC: immunizing peptide, C-terminus of ERβ (amino acids 449-465), 4-branch Multiple Antigenic Peptide (QQQSMRLANLLMLLSHV; also: 4-branch Multiple Antigenic Peptide)
- suppression of GC-17 binding to the recombinant protein (recombinant ERβ protein): successfully suppressed binding
- effect on nuclear staining by GC-17 (ERβ): totally abolished nuclear staining

Reference: patent US20020115117A1, “ERbeta-mediated gene expression” (priority 2000, published 2002)
